# Values quoted from earlier work as cited in PubChem BioAssay AID1259409 (Chemical Carcinogenesis Research Information System (CCRIS), 2018).
# Values joined by “and” are separate entries in the source; they are usually repeats but may differ in a detail not shown here. Identical values can stand only once.
# Test system: rodent chemically induced tumor inhibition, incidence and multiplicity
# Assay: CCRIS tumor inhibitor studies
# Details: Carcinogen: 7,12-DIMETHYLBENZ[A]ANTHRACENE, 57-97-6, Route [Inhibitor]: DERMAL, Species: MOUSE, Target Tissue: Type of Lesion: SKIN: PAPILLOMA, Promoter: 12-O-TETRADECANOYLPHORBOL-13-ACETATE, 16561-29-8
compound,measurement,setting,value
CC1=C(/C=C/C(C)=C/C=C/C(C)=C/C(=O)O)C(C)(C)CCC1,"tumour outcome (control, treated, inhibition, significance)","Dose [Inhibitor]: 17 NMOL IN 0.2 ML ACETONE 1 HR PRIOR TO EACH PROMOTER DOSE BEGINNING AT WEEK 10 OF PROMOTION AND CONTINUING FOR DURATION, Strain/Sex: CD-1/FEMALE, Dose [Carcinogen]: 200 NMOL IN 0.2 ML ACETONE ONCE","100%, 95%, 5%, p>0.3"
same,"tumour outcome (control, treated, inhibition, significance)","Dose [Inhibitor]: 17 NMOL IN 0.2 ML ACETONE 1 HR PRIOR TO EACH PROMOTER DOSE FOR 12 WK (STUDY DURATION: 14 WK), Strain/Sex: SENCAR/FEMALE, Dose [Carcinogen]: 200 NMOL IN 0.2 ML ACETONE ONCE","100%, 87%, 13%, not calculated"
same,"tumour outcome (control, treated, inhibition, significance)","Dose [Inhibitor]: 17 NMOL IN 0.2 ML ACETONE 1 HR PRIOR TO EACH PROMOTER DOSE FOR 20 WK (STUDY DURATION: 22 WK), Strain/Sex: CD-1/FEMALE, Dose [Carcinogen]: 200 NMOL IN 0.2 ML ACETONE ONCE","94%, 62%, 34%, not calculated"
same,"tumour outcome (control, treated, inhibition, significance)","Dose [Inhibitor]: 17 NMOL IN 0.2 ML ACETONE 1 HR PRIOR TO EACH PROMOTER DOSE FOR DURATION OF STUDY (STUDY DURATION: 27 WK), Strain/Sex: CD-1/FEMALE, Dose [Carcinogen]: 200 NMOL IN 0.2 ML ACETONE ONCE","100%, 60%, 40%, p<0.02"
same,"tumour outcome (control, treated, inhibition, significance)","Dose [Inhibitor]: 17 NMOL IN 0.2 ML ACETONE 1 HR PRIOR TO EACH PROMOTER DOSE FOR FIRST 10 WK OF PROMOTION (STUDY DURATION: 27 WK), Strain/Sex: CD-1/FEMALE, Dose [Carcinogen]: 200 NMOL IN 0.2 ML ACETONE ONCE","100%, 90%, 10%, p>0.3"
same,"tumour outcome (control, treated, inhibition, significance)","Dose [Inhibitor]: 17 NMOL IN 0.2 ML ACETONE 2/WK 1 HR BEFORE EACH PROMOTER APPLICATION STARTING 14 D AFTER CARCINOGEN APPLICATION AND CONT, Strain/Sex: CD-1/FEMALE, Dose [Carcinogen]: 0.2 UMOL IN 0.2 ML ACETONE ONCE","98%, 42%, 57%, not calculated"
same,"tumour outcome (control, treated, inhibition, significance)","Dose [Inhibitor]: 17 NMOL IN 0.2 ML ACETONE 2/WK 1 HR BEFORE EACH PROMOTER APPLICATION STARTING 14 D AFTER CARCINOGEN APPLICATION AND CONT, Strain/Sex: CD-1/FEMALE, Dose [Carcinogen]: 0.2 UMOL ONCE","100%, 80%, 20%, not significant"
same,"tumour outcome (control, treated, inhibition, significance)","Dose [Inhibitor]: 17 NMOL IN 0.2 ML ACETONE 2/WK 24 HR AFTER EACH PROMOTER TREATMENT STARTING 14 D AFTER CARCINOGEN TREATMENT AND CONTINUI, Strain/Sex: CD-1/FEMALE, Dose [Carcinogen]: 0.2 UMOL IN 0.2 ML ACETONE ONCE","98%, 96%, 2%, not significant"
same,"tumour outcome (control, treated, inhibition, significance)","Dose [Inhibitor]: 34 NMOL IN 0.2 ML ACETONE 2/WK 1 HR BEFORE EACH PROMOTER APPLICATION STARTING 14 D AFTER CARCINOGEN APPLICATION AND CONT, Strain/Sex: CD-1/FEMALE, Dose [Carcinogen]: 0.2 UMOL IN 0.2 ML ACETONE ONCE","90%, 55%, 39%, not calculated and 90%, 48%, 47%, not calculated"
same,"tumour outcome (control, treated, inhibition, significance)","Dose [Inhibitor]: 68 NMOL IN 0.2 ML ACETONE 2/WK 1 HR BEFORE EACH PROMOTER APPLICATION STARTING 14 D AFTER CARCINOGEN APPLICATION AND CONT, Strain/Sex: CD-1/FEMALE, Dose [Carcinogen]: 0.2 UMOL IN 0.2 ML ACTEONE ONCE","95%, 53%, 44%, not calculated"
